Assay results: patent US20260265238A1, “COMPOUNDS AND PHARMACEUTICAL COMPOSITIONS THAT DEGRADE SWI/SNF-RELATED MATRIX-ASSOCIATED ACTIN-DEPENDENT REGULATOR OF CHROMATIN SUBFAMILY A” (Plexium, Inc., priority 2023, published 2026)

What was measured:
[1] = molecular target: T1, SMARCA2-HiBiT HeLa cells (protein which is expressed from the SMARCA2 gene) (Homo sapiens, UniProt P51531); test: SMARCA2 degradation assay (HiBiT-fusion HeLa cell line, 24 h, luminescence); type: cell-based
T1 construct: protein which is expressed from the SMARCA2 and SMARCA4 genes; host or cells: HeLa (SMARCA2-HiBiT engineered line)
Outline: (§1)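 HiBiT-fusion HeLa lines, 8,000 cells/well, overnight attachment; cpd 10-pt series (typically 10 μM–300 pM), 24 h, 37° C. Lysis with LgBiT + HiBiT substrate, 10 min shaking at RT, luminescence read. DC50 from dose-response fit; % degradation also scored at 1 μM.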

[2] = molecular target: T2, SMARCA4-HiBiT HeLa cells (protein which is expressed from the SMARCA4 gene) (Homo sapiens, UniProt P51532); test: SMARCA4 degradation assay (HiBiT-fusion HeLa cell line, 24 h, luminescence); type: cell-based
T2 construct: protein which is expressed from the SMARCA2 and SMARCA4 genes; host or cells: HeLa (SMARCA4-HiBiT engineered line)
Outline: as §1

T1 sequence (P51531 whole entry, the tested form may be a part): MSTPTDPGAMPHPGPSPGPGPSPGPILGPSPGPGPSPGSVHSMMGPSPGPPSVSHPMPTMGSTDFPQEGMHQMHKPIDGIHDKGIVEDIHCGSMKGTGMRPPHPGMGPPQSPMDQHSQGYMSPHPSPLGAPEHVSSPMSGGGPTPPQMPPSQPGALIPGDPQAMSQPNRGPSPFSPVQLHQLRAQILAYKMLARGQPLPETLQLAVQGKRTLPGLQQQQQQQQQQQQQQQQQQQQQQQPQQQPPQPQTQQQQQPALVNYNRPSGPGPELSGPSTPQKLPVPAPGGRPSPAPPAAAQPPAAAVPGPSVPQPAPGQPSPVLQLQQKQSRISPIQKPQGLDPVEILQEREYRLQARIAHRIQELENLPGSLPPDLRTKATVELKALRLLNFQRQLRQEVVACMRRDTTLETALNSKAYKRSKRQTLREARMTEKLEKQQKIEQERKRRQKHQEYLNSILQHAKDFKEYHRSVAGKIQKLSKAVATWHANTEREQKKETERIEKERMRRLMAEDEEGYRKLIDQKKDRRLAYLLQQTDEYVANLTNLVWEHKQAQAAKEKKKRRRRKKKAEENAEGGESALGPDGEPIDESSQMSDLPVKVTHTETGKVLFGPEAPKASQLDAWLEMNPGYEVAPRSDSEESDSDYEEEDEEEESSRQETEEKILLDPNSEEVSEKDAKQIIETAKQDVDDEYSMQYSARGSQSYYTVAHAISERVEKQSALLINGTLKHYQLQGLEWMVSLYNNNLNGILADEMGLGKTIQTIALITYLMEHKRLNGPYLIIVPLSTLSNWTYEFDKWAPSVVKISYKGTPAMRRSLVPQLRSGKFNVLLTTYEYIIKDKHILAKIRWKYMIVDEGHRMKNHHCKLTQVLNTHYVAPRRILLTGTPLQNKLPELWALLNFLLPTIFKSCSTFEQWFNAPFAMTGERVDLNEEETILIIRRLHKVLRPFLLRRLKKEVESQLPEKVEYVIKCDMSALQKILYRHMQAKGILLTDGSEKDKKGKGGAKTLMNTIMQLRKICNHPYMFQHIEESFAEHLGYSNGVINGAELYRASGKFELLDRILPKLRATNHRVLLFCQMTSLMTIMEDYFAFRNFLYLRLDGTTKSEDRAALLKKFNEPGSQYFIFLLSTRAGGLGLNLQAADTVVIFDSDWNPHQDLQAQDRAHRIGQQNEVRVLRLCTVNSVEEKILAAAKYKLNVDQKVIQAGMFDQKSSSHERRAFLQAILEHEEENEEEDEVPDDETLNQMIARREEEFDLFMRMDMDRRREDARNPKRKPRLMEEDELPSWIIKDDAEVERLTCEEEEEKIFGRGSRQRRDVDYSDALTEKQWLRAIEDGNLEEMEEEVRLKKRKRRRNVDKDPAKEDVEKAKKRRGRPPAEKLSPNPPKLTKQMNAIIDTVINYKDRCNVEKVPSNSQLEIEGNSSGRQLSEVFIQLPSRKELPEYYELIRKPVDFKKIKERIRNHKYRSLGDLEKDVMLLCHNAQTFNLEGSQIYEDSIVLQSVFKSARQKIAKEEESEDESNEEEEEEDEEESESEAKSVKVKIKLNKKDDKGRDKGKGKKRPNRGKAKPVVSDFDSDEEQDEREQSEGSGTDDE
T2 sequence (P51532 whole entry, the tested form may be a part): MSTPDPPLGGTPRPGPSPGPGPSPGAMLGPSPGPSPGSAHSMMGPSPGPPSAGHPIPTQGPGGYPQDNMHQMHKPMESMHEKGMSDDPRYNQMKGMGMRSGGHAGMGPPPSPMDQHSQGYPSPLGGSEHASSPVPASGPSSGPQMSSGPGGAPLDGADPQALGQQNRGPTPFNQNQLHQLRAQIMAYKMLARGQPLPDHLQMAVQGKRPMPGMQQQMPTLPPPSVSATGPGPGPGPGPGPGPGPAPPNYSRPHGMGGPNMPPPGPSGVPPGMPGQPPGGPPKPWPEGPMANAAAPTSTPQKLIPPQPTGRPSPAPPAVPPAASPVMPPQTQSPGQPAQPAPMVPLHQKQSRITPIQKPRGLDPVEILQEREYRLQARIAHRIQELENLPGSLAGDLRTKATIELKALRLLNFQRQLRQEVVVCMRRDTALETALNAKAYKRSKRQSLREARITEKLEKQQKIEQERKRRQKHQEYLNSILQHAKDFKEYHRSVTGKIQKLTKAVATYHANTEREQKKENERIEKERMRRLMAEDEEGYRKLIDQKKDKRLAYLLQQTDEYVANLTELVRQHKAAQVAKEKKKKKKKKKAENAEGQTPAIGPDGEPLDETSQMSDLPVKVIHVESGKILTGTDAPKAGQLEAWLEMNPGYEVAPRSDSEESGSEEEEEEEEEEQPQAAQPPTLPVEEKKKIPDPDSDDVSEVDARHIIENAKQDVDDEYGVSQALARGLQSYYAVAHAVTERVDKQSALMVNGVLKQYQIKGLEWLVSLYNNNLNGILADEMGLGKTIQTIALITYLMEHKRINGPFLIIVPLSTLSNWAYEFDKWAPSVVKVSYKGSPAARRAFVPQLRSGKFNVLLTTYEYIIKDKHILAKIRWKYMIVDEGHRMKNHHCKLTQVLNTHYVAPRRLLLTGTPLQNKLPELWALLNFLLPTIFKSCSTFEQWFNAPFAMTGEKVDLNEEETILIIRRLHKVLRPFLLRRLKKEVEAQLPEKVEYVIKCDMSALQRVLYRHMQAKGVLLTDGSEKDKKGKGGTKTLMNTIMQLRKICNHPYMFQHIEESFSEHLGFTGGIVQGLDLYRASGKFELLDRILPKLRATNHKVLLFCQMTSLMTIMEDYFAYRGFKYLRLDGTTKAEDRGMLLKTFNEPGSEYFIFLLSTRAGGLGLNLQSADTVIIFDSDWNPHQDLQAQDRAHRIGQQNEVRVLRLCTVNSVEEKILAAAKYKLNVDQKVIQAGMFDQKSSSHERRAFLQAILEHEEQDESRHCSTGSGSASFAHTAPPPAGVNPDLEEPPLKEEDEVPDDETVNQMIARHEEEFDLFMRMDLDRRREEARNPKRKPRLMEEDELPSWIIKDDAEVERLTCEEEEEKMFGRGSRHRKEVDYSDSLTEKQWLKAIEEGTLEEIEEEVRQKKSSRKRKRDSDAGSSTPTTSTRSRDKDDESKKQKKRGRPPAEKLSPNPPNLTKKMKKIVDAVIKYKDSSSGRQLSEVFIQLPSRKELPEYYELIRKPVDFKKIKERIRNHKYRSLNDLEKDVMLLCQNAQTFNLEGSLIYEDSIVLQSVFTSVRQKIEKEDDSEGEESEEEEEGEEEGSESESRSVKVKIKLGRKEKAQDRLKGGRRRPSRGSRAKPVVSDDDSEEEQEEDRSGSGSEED

SMILES	DC50 [1]	SMARCA2 % Degradation @ 1 μM ([1]; @ 1 μM)	DC50 [2]	inhibition at 1 µM ([2]; @ 1 μM)	SMARCA2 % Degradation @ 1 μM ([1]; 1 μM)	inhibition at 1 µM ([2]; 1 μM)
Nc1nnc(-c2ccccc2O)cc1N1CCCN(c2ccnc(C#CCNC(=O)c3cc4ncccn4n3)n2)CC1 [Compound P-76, N-(3-(4-(4-(3-amino-6-(2-hydroxyphenyl)pyridazin-4-yl)-1,4-diazepan-1-yl)pyrimidin-2-yl)prop-2-yn-1-yl)pyrazolo[1,5-a]pyrimidine-2-carboxamide]	50 to 500 nM	+++ (+++=>70%)	50 to 500 nM	> 70%		
Cn1ccnc1C#Cc1nccc(N2CCCN(c3cc(-c4ccccc4O)nnc3N)CC2)n1 [Compound P-354]	500 to 5000 nM	++ (++=30-70%)	500 to 5000 nM	30 to 70%		
CC(C)(C)OC(=O)NCC#Cc1nccc(N2CCC(Oc3cc(-c4ccccc4O)nnc3N)CC2)n1 [Compound P-296, 4-(1-{2-[3-(tert-butoxycarbonylamino)-1-propynyl]-4-pyrimidinyl}-4-piperidyloxy)-6-(o-hydroxyphenyl)-3-pyridazinamine]	50 to 500 nM	++ (++=30-70%)	50 to 500 nM	30 to 70%		
Nc1nnc(-c2ccccc2O)cc1N1CCCN(c2ccnc(C#CC3CCOC3)n2)CC1 (centres unmarked) [Compound P-340, 0-[6-amino-5-(4-{2-[2-(tetrahydro-3-furyl)ethynyl]-4-pyrimidinyl}-1,4-diazepan-1-yl)-3-pyridazinyl]phenol]	50 to 500 nM	++ (++=30-70%)	50 to 500 nM	30 to 70%		
C[C@@H]1CCN(c2cc(-c3ccccc3O)nnc2N)CCN1c1ccnc(C#CCNC(=O)c2cc3ncccn3n2)n1 [Compound P-14, (R)-N-(3-(4-(4-(3-amino-6-(2-hydroxyphenyl)pyridazin-4-yl)-7-methyl-1,4-diazepan-1-yl)pyrimidin-2-yl)prop-2-yn-1-yl)pyrazolo[1,5-a]pyrimidine-2-carboxamide]	50 to 500 nM	+++ (+++=>70%)	50 to 500 nM	30 to 70%		
C[C@@H]1CCN(c2cc(-c3ccccc3O)nnc2N)CCN1c1ccc(C#N)c(C#CCN(C)C)n1 [Compound P-423, 6-{(R)-4-[3-amino-6-(0-hydroxyphenyl)-4-pyridaziny1]-7-methyl-1,4-diazepan-1-yl}-2-[3-(dimethylamino)-1-propynyl]nicotinonitrile]	< 50 nM		< 50 nM		++ (++=30-70%)	30 to 70%
Nc1nnc(-c2ccccc2O)cc1N1CCC2(CCCN(c3ccnc(C#CCO)n3)C2)CC1 [Compound P-123, 2-(6-amino-5-(2-(2-(3-hydroxyprop-1-yn-1-yl)pyrimidin-4-yl)-2,9-diazaspiro[5.5]undecan-9-yl)pyridazin-3-yl)phenol]	50 to 500 nM	++ (++=30-70%)	< 50 nM	30 to 70%		
COC1CN(CC#Cc2nccc(N3CCCN(c4cc(-c5ccccc5O)nnc4N)CC3)n2)C1 [Compound P-309, 0-[6-amino-5-(4-{2-[3-(3-methoxy-1-azetidinyl)-1-propynyl]-4-pyrimidinyl}-1,4-diazepan-1-yl)-3-pyridazinyl]phenol]	50 to 500 nM	++ (++=30-70%)	50 to 500 nM	30 to 70%		
Nc1nnc(-c2ccccc2O)cc1N1CC2CCC(C1)N2c1ccnc(C#CCn2nnc3ccccc32)n1 [Compound P-132, 2-(5-(8-(2-(3-(1H-benzo[d][1,2,3]triazol-1-yl)prop-1-yn-1-yl)pyrimidin-4-yl)-3,8-diazabicyclo| 3.2.1 |octan-3-yl)-6-aminopyridazin-3-yl)phenol]	500 to 5000 nM	++ (++=30-70%)	500 to 5000 nM	30 to 70%		
Nc1nnc(-c2ccccc2O)cc1N1CCN(c2ccnc(C#CCNC(=O)c3ccn(C(F)F)n3)n2)CC1 [Compound P-10, N-[3-(4-{4-[3-amino-6-(2-hydroxyphenyl)pyridazin-4-yl]piperazin-1-yl}pyrimidin-2-yl)prop-2-yn-1-y1]-1-(difluoromethyl)-1H-pyrazole-3-carboxamide]	50 to 500 nM	++ (++=30-70%)	< 50 nM	30 to 70%		
Nc1nnc(-c2ccccc2O)cc1N1CCC2C1CCCN2c1ccnc(C#CCNC(=O)c2cc3ncccn3n2)n1 (centres unmarked) [Compound P-38, N-(3-(4-(1-(3-amino-6-(2-hydroxyphenyl)pyridazin-4-yl)octahydro-4H-pyrrolo[3,2-b]pyridin-4-yl)pyrimidin-2-yl)prop-2-yn-1-yl)pyrazolo[1,5-a]pyrimidine-2-carboxamide]	500 to 5000 nM	+ (+=<30%)	500 to 5000 nM	< 30%		
C[C@@H]1CCN(c2cc(-c3ccccc3O)nnc2N)CCN1c1ccnc(C#CCn2cncn2)c1 [Compound P-424, 0-{5-[(R)-5-methyl-4-{2-[3-(1H-1,2,4-triazol-1-yl)-1-propynyl]-4-pyridyl}-1,4-diazepan-1-yl]-6-amino-3-pyridaziny1} phenol]	50 to 500 nM		50 to 500 nM		+++ (+++=>70%)	30 to 70%
Nc1nnc(-c2ccccc2O)cc1N1CCN(c2ccnc(C#CCNC(=O)c3noc4ccccc34)n2)CC1 [Compound P-54, N-(3-(4-(4-(3-amino-6-(2-hydroxyphenyl)pyridazin-4-yl)piperazin-1-yl)pyrimidin-2-yl)prop-2-yn-1-yl)benzo[d]isoxazole-3-carboxamide]	50 to 500 nM	++ (++=30-70%)	50 to 500 nM	30 to 70%		
C[C@@H]1CCN(c2cc(-c3ccccc3O)nnc2N)CCN1c1ccnc(/C=C/CO)n1 [Compound P-168, o-(5-{(R)-4-[2-(3-hydroxy-1-propenyl)-4-pyrimidinyl]-5-methyl-1,4-diazepan-1-y1}-6-amino-3-pyridazinyl)phenol]	50 to 500 nM	+++ (+++=>70%)	50 to 500 nM	> 70%		
N#Cc1ccc(N2C3CCC2CN(c2cnnc(-c4ccccc4O)c2)C3)nc1C#CCN1CC(F)(F)C1 [Compound P-403, 2-[3-(3,3-difluoro-1-azetidinyl)-1-propynyl]-6-{3-[6-(o-hydroxyphenyl)-4-pyridazinyl]-3,8-diazabicyclo[3.2.1]oct-8-yl} nicotinonitrile]	500 to 5000 nM		> 5000 nM			
Nc1nnc(-c2ccccc2O)cc1N1CC2CN(c3ccnc(C#CCNC(=O)c4cc5ncccn5n4)n3)CC2C1 (centres unmarked) [Compound P-41, N-(3-(4-(5-(3-amino-6-(2-hydroxyphenyl)pyridazin-4-yl)hexahydropyrrolo[3,4-c]pyrrol-2(1H)-yl)pyrimidin-2-yl)prop-2-yn-1-yl)pyrazolo[1,5-a]pyrimidine-2-carboxamide]	50 to 500 nM	++ (++=30-70%)	50 to 500 nM	30 to 70%		
CN(C)CC#Cc1nccc(N2C3CCC2CN(c2cc(-c4ccccc4O)nnc2N)C3)n1 [Compound P-134, 2-(6-amino-5-(8-(2-(3-(dimethylamino)prop-1-yn-1-yl)pyrimidin-4-yl)-3,8-diazabicyclo[3.2.1]octan-3-yl)pyridazin-3-yl)phenol]	50 to 500 nM	++ (++=30-70%)	< 50 nM	30 to 70%		
C[C@H]1CN(c2ccnc(C#CCn3cccn3)n2)CCN1c1cc(-c2ccccc2O)nnc1N [Compound P-329, 0-{5-[(S)-2-methyl-4-{2-[3-(1-pyrazolyl)-1-propynyl]-4-pyrimidinyl}-1-piperazinyl]-6-amino-3-pyridazinyl} phenol]	50 to 500 nM	++ (++=30-70%)	50 to 500 nM	< 30%		
CNCC#Cc1nccc(N2CCN(c3cc(-c4ccccc4O)nnc3N)CC2)n1 [Compound P-294, 0-[6-amino-5-(4-{2-[3-(methylamino)-1-propynyl]-4-pyrimidinyl}-1-piperazinyl)-3-pyridazinyl]phenol]	< 50 nM	++ (++=30-70%)	< 50 nM	< 30%		
Nc1nnc(-c2ccccc2O)cc1N1CCC2(CCN(c3ccnc(C#CCNC(=O)c4cc5ncccn5n4)n3)C2)CC1 [Compound P-32, N-(3-(4-(8-(3-amino-6-(2-hydroxyphenyl)pyridazin-4-yl)-2,8-diazaspiro[4.5]decan-2-yl)pyrimidin-2-yl)prop-2-yn-1-yl)pyrazolo[1,5-a]pyrimidine-2-carboxamide]	50 to 500 nM	++ (++=30-70%)	50 to 500 nM	30 to 70%		
Nc1nnc(-c2ccccc2O)cc1N1CCCN(c2ccnc(C#CCN3CCCOCC3)n2)CC1 [Compound P-379, 0-[6-amino-5-(4-{2-[3-(1,4-oxazepan-4-yl)-1-propynyl]-4-pyrimidinyl}-1,4-diazepan-1-yl)-3-pyridazinyl]phenol]	50 to 500 nM	+++ (+++=>70%)	50 to 500 nM	30 to 70%		
Nc1nnc(-c2ccccc2O)cc1N1CCCN(c2ccnc(C#CCN[C@@H]3CCOC3)n2)CC1 [Compound P-273, 0-{5-[4-(2-{3-[(R)-tetrahydro-3-furylamino]-1-propynyl}-4-pyrimidinyl)-1,4-diazepan-1-yl]-6-amino-3-pyridazinyl}phenol]	50 to 500 nM	+++ (+++=>70%)	50 to 500 nM	30 to 70%		
